Calls of active or inactive are those of the source. The calls are words filed in the database; no cut-off is given here.
How the values were obtained:
[1] = Antiviral activity against SARS-CoV-2 infected in HEK293T cells assessed as inhibition of SARS-CoV-2 RdRp in the presence of coelenterazine-h incubated for 24 hrs by Gaussia luciferase reporter assay; assay type: functional, cell-based; conditions: Homo sapiens, HEK-293T
[2] = molecular target: Replicase polyprotein 1ab (Severe acute respiratory syndrome coronavirus 2) (UniProt P0DTD1); test: Inhibition of SARS-CoV-2 RdRp in HEK-293T cells at 10 uM measured after 24 hrs relative to control; assay type: cell-based
[3] = Cytotoxicity against HEK293T cells assessed as inhibition of cell growth measured after 48 hrs by CCK8 assay; assay type: toxicity, cell-based, HEK-293T; conditions: human
[4] = molecular target: T1, Replicase polyprotein 1ab (Severe acute respiratory syndrome coronavirus 2, UniProt P0DTD1); test: Inhibition of his tagged SARS-CoV-2 nsp12 in HEK-293T cells cotransfected with pCoV-GLuc incubated for 24 hrs in the presence of coelenterazine-h by Gaussia luciferase reporter assay; assay type: cell-based
[5] = molecular target: T1, Replicase polyprotein 1ab; test: Inhibition of SARS-CoV-2 nsp14 in HEK-293T cells cotransfected with pCoV-GLuc incubated for 24 hrs in the presence of coelenterazine-h by Gaussia luciferase reporter assay; assay type: cell-based
[6] = molecular target: Replicase polyprotein 1ab (Severe acute respiratory syndrome coronavirus 2) (UniProt P0DTD1); test: Inhibition of SARS-CoV-2 RdRp mediated RNA synthesis in HEK-293T cells cotransfected with pCoV-GLuc and pCMV6-nsp12/nsp7/nsp8 assessed as reduction in minus strand RNA level by measuring GLuc RNA level for 24 hrs in the presence of coelenterazine-h by Gaussia luciferase reporter assay; assay type: cell-based; conditions: dose 2-10 µM
[7] = Selectivity index, ratio of CC50 for cytotoxicity against HEK293T cells assessed as inhibition of cell growth to EC50 for antiviral activity against SARS-CoV-2 infected in HEK293T cells assessed as inhibition of SARS-CoV-2 RdRp; assay type: toxicity, cell-based; conditions: human, read-out: Ratio CC50/EC50
[8] = molecular target: Replicase polyprotein 1ab (Severe acute respiratory syndrome coronavirus 2) (UniProt P0DTD1); test: Inhibition of SARS-CoV-2 RdRp mediated RNA synthesis in HEK-293T cells cotransfected with pCoV-GLuc and pCMV6-nsp12/nsp7/nsp8 assessed as reduction in plus strand RNA level by measuring GLuc RNA level for 24 hrs in the presence of coelenterazine-h by Gaussia luciferase reporter assay; assay type: cell-based; conditions: dose 2-10 µM
[9] = system: Human coronavirus NL63; test: Antiviral activity against HCoV-NL63 infected in Rhesus monkey LLC-MK2 cells at a MOI of 0.01 assessed as inhibition of viral replication measured after 120 hrs by MTS assay; assay type: functional, organism-based; conditions: Human coronavirus NL63, LLC-MK2, 120 h
[10] = system: Human coronavirus OC43; test: Antiviral activity against HCoV-OC43 infected in human HCT-8 cells at a MOI of 0.1 assessed as inhibition of viral replication measured after 5 days by MTS assay; assay type: functional, organism-based; conditions: Betacoronavirus 1, HCT-8, 120 h
[11] = molecular target: Replicase polyprotein 1ab (Severe acute respiratory syndrome coronavirus 2) (UniProt P0DTD1); test: Inhibition of SARS-CoV-2 RdRp mediated RNA synthesis in HEK-293T cells cotransfected with pCoV-GLuc and pCMV6-nsp12/nsp7/nsp8 assessed as reduction in plus strand RNA level at 10 uM by measuring GLuc RNA level for 24 hrs in the presence of coelenterazine-h by Gaussia luciferase reporter assay relative to control; assay type: cell-based
[12] = Cytotoxicity against human HCT-8 cells incubated for 48 hrs by CCK8 method; assay type: toxicity, cell-based
[13] = Cytotoxicity against Rhesus monkey LLC-MK2 cells incubated for 48 hrs by method; assay type: toxicity, cell-based, Macaca mulatta
[14] = molecular target: Replicase polyprotein 1ab (Severe acute respiratory syndrome coronavirus 2) (UniProt P0DTD1); test: Inhibition of SARS-CoV-2 RdRp mediated RNA synthesis in HEK-293T cells cotransfected with pCoV-GLuc and pCMV6-nsp12/nsp7/nsp8 assessed as reduction in minus strand RNA level at 10 uM by measuring GLuc RNA level for 24 hrs in the presence of coelenterazine-h by Gaussia luciferase reporter assay relative to control; assay type: cell-based
[15] = system: Human coronavirus OC43; test: Antiviral activity against HCoV-OC43(Rluc) infected in BHK-21 cells assessed as inhibition of viral infection at 10 uM pre-infected with virus for 2 hrs followed by compound addition measured after 24 hrs by luciferase assay; assay type: functional, organism-based
[16] = system: Human coronavirus OC43; test: Antiviral activity against HCoV-OC43(Rluc) infected in golden hamster BHK-21 cells assessed as inhibition of viral replication at 10 uM pre-infected with virus for 1 hrs followed by compound addition and measured after 24 hrs by luciferase assay; assay type: functional, organism-based
[17] = system: SARS-CoV-2; test: Antiviral activity against SARS-CoV-2 C-Tan-n-CoV Wuhan infected in African green monkey Vero E6 cells assessed as inhibition of viral replication incubated for 24 hrs by qRT-PCR analysis; assay type: functional, organism-based; conditions: Severe acute respiratory syndrome coronavirus 2, C-Tan-n-CoV Wuhan, Vero C1008, 24 h
[18] = molecular target: Replicase polyprotein 1ab (Severe acute respiratory syndrome coronavirus 2) (UniProt P0DTD1); test: Inhibition of SARS-CoV-2 3CLpro in HEK293T cells at 2 to 20 uM measured after 48 hrs by Western blot analysis; assay type: cell-based; conditions: dose 2-20 µM
[19] = system: Human coronavirus OC43; test: Antiviral activity against HCoV-OC43 infected in golden hamster BHK-21 cells assessed as inhibition of viral infection at 10 uM measured after 24 hrs by luciferase assay; assay type: functional, organism-based
[20] = molecular target: T1, Replicase polyprotein 1ab; test: Binding affinity to SARS-CoV-2 nsp12 expressed in Escherichia coli BL21 (DE3) cells using biotinylated EZ-link NHS-LC-LC assessed as dissociation constant incubated for 180 sec by BLI assay
[21] = molecular target: T1, Replicase polyprotein 1ab; test: Binding affinity to SARS-CoV-2 nsp12 expressed in Escherichia coli BL21 (DE3) cells using biotinylated EZ-link NHS-LC-LC assessed as dissociation constant at 6.25 to 100 uM incubated for 180 sec by BLI assay

SMILES	EC50 [1] [µM]	inhibition [2] [%]	CC50 at 48 h [3] [µM]	also measured
CN(C)c1ccc(/N=N/c2ccc(N)nc2N)cc1	9.52	50.1	> 100	
Cc1cc(N)nc(N)c1/N=N/c1ccccc1		49.9		
Nc1ccc(/N=N/c2cccc3c2CCCC3)c(N)n1	7.35	71.8	78.9	
Nc1cc(Br)c(/N=N/c2ccccc2)c(N)n1		41.9		
CC(C)(C)OC(=O)NCC(=O)Nc1nc(N)ccc1/N=N/c1ccccc1	1.7	77.4	> 100	
Oc1ccc(/N=N/c2ccccc2)cc1		45.4		
Nc1ccc(/N=N/c2ccc(C(F)(F)F)cc2)c(N)n1	6.32	74.9	> 100	
Cc1ccc(/N=N/c2ccc(N)nc2N)cc1	8.59	59.1	> 100	
CSCC[C@H](N)C(=O)Nc1nc(N)ccc1/N=N/c1ccccc1	7.26	55.3	> 100	
CC(C)(C)OC(=O)N[C@@H](Cc1ccccc1)C(=O)Nc1nc(N)ccc1/N=N/c1ccccc1	2.64	79.8	> 100	
C[C@H](NC(=O)OC(C)(C)C)C(=O)Nc1nc(N)ccc1/N=N/c1ccccc1	1.42	86	> 100	EC50 [4]: 1420 nM; EC50 [5]: 1730 nM; inhibition [6]: Dose-dependent-effect; selectivity ratio [7]: 70.4; inhibition [8]: Dose-dependent-effect
Nc1ccc(/N=N/c2ccc(Cl)cc2)c(N)n1	7.64	64.5	> 100	
Nc1nc(N)c(/N=N/c2ccccc2)cc1Br	13.3	51.1	> 100	
CC(C)(C)OC(=O)N[C@@H](Cc1c[nH]c2ccccc12)C(=O)Nc1nc(N)ccc1/N=N/c1ccccc1	3.79	79.8	79.2	
CCC(CC)COC(=O)[C@H](C)N[P@](=O)(OC[C@H]1O[C@@](C#N)(c2ccc3c(N)ncnn23)[C@H](O)[C@@H]1O)Oc1ccccc1			> 100	EC50 [9]: 2.67 µM; EC50 [10]: 1.89 µM; inhibition [11]: 80%; CC50 at 48 h [12]: > 100 µM; inhibition [6]: Dose-dependent-effect; CC50 at 48 h [13]: > 100 µM; inhibition [8]: Dose-dependent-effect; inhibition [14]: 80%
NCC(=O)Nc1nc(N)ccc1/N=N/c1ccccc1	9.28	52.4	> 100	
Nc1cc(-c2ccccc2)c(/N=N/c2ccccc2)c(N)n1	8.26	65.6	> 100	
COc1ccc(/N=N/c2ccc(N)nc2N)cc1		48		
Nc1ccc(/N=N/c2ccccc2)c(NC(=O)[C@@H](N)Cc2c[nH]c3ccccc23)n1	1.64	82.7	81.9	EC50 [4]: 1640 nM; EC50 [5]: 1530 nM; inhibition [6]: Dose-dependent-effect; selectivity ratio [7]: 50; inhibition [8]: Dose-dependent-effect
Nc1ccc(/N=N/c2ccc([N+](=O)[O-])cc2)c(N)n1		45.8		
Nc1ccc(/N=N/c2ccc(OCc3ccccc3)cc2)c(N)n1	7.16	65.3	> 100	
C[C@H](N)C(=O)Nc1nc(N)ccc1/N=N/c1ccccc1		48.2		
Nc1nc(N)c(/N=N/c2ccccc2)cc1/N=N/c1ccccc1		46		
Nc1ccc(/N=N/c2ccccc2)c(NC(=O)[C@@H]2CCCN2)n1	3.78	72.9	> 100	
Cl.Nc1ccc(/N=N/c2ccccc2)c(N)n1 [PHENAZOPYRIDINE HYDROCHLORIDE]	7.37	50	> 100	EC50 [4]: 7370 nM; inhibition [15]: Active; EC50 [9]: 5.52 µM; inhibition [16]: Active; Minor Effects Was Observed; EC50 [10]: 4.69 µM; inhibition [11]: 90%; EC50 [17]: 5.37 µM; inhibition [18]: inactive; CC50 at 48 h [12]: > 100 µM; inhibition [19]: Active; EC50 [5]: 8010 nM; Kd [20]: Dose-dependent-effect; Kd [21]: 5 µM; inhibition [6]: Dose-dependent-effect; selectivity ratio [7]: > 13.6; CC50 at 48 h [13]: > 100 µM; inhibition [8]: Dose-dependent-effect
Nc1ccc(/N=N/c2ccc(F)cc2)c(N)n1	8.73	64.9	> 100	
Nc1ccc(/N=N/c2ccc(Cc3ccccc3)cc2)c(N)n1	6.47	59.3	> 100	
Nc1ccc(/N=N/c2ccc(Br)cc2)c(N)n1	8.61	71.8	> 100	
Nc1ccc(/N=N/c2ccccc2)c(NC(=O)[C@@H](N)Cc2ccccc2)n1	8.77	56.7	> 100	
CSCC[C@H](NC(=O)OC(C)(C)C)C(=O)Nc1nc(N)ccc1/N=N/c1ccccc1	1.33	83	> 100	EC50 [4]: 1330 nM; EC50 [5]: 1380 nM; inhibition [6]: Dose-dependent-effect; selectivity ratio [7]: 75.2; inhibition [8]: Dose-dependent-effect
